Data on one molecule can be found in patent US20250268980A1, “AN ANTICANCER THERAPY TARGETING RAS AND OTHER ONCOGENIC SIGNALS BY INHIBITION OF DYNAMIC BLEBBING AND/OR SEPTINS” (THE BOARD OF REGENTS OF THE UNIVERSITY OF TEXAS SYSTEM, priority 2022, published 2025).

For one assay, the system named is ERK. In words: ERK activity assay with ERK-nKTR-GFP biosensor in MV3 cells. Format: cell-based, human. On the procedure:
Detached/Adhered Cell Culture. […] Drug treatments, solvent-only controls, or CellEvent caspase activity sensor were added to suspensions if appropriate to the experiment, and then immediately transferred to both an uncoated (for detached cells) and ibiTreated (for adhered cells) 8-well ibidi u-slide (ibidi cat #80821 and 80826) at 200 μl/well. Both slides were stored at 37° C. and 5% CO2 for either 24 hours (hrs) for viability assays, 3 hrs for ERK activity assays or 4 hours for caspase activation assays. Uncoated slides (detached) were nutated at 20 rpm during this time. […]
Viability, ERK Activity, and Caspase ActivityCell Counting Assays. Viability, ERK activity, and caspase activity assays were analyzed using live-cell fluorescent and phase-contrast microscopy, performed on a Nikon Ti microscope equipped with an environmental chamber held at 37° C. and 5% CO2 at 20× magnification. […] Live and dead cells (as identified by significant cellular ethidium signal) were counted using the Cell Counter ImageJ plugin. For ERK activity assays, live cells carrying ERK-nKTR-GFP and H2B-mCherry were imaged after 3 hours of experimental conditions and high/low ERK activity cells were counted with Cell Counter ImageJ plugin. […] Caspase positive and negative cells (as identified by significant cellular CellEvent signal) were counted using the Cell Counter ImageJ plugin.

The test system of assay [1] is septin structures in MV3 melanoma xenografts. In words: Septin foci at invasive front of MV3 SEPT6-GFP xenograft tumors (ctASLM). The format is in vivo, NOD SCID mice. The conditions noted are these: mice with MV3 SEPT6-GFP tumors, FCF via oral gavage. The source says: NOD SCID mice were flank-injected with SEPT6-GFP-expressing MV3 melanoma cells to form xenograft tumors. Once tumors were palpable at injection sites they were dissected out with surrounding stroma, fixed, cleared, and imaged via cleared tissue axially-scanned lightsheet microscopy (ctASLM) to observe and quantify bleb formation and septin structure formation. As shown in FIG. 18A and FIG. 18B these in vivo experiments recapitulated in vitro results described previously, showing blebby morphologies with associated punctate septin structures (FIG. 18A). Importantly, this phenotype was exclusively observed at the invasive front of tumors, where cells lose contact to surrounding tissue, and not in the densely packed tumor core (FIG. 18B). These findings agree with previous research showing that blebby amoeboid-like cells are enriched at tumor invasive fronts. […] Furthermore, they support the idea that such bleb-associated septin signaling hubs are relevant in disease progression in human patients.
Specifically, FIG. 20A and FIG. 20B depict graphs illustrating the feasibility of anti-septin therapy in vivo. In triplicate experiments, mice growing tumors formed with SEPT6-GFP expressing MV3 melanoma cells (using the methods described in Example 8 above) were treated with FCF via oral gavage and septin structures were analyzed. […]

Turning to `O=C(Nc1ccccc1)Nc1ccnc(Cl)c1` [FCF, forchlorfenuron], in the assay with ERK (adhered MV3, 3 hours of FCF), the ERK signaling entry was “no difference in ERK signaling compared to controls”. Besides, the ERK activation result with ERK (detached MV3, 3 hours of FCF) is “significantly reduced”. Moreover, in assay [1], the “intensity of septin foci at the invasive front” value was “dimmer” and the “number of septin foci at the invasive front” value is recorded as “significantly fewer”.
